These results are taken from patent publication US8759368B2, “Benzoic acid, benzoic acid derivatives and heteroaryl carboxylic acid conjugates of hydrocodone, prodrugs, methods of making and use thereof” (KemPharma, Inc., priority 2009, dated 2014).

Data set [1] in a line: Chemical stability: hydrolysis of conjugate in water for one hour. It counts as physicochemical. To be noted: for water, ambient (amount of conjugate hydrolyzed): ambient temperature (about 20° C.); for water, 100° C. (amount of conjugate hydrolyzed): oil bath at 100° C. Here is the method:
Exemplary conjugates of hydrocodone of the present technology and control test conjugates not of the present technology were tested for chemical stability under conditions similar to what a potential drug abuser may use to “extract” the active portion of the molecule, for example dissolved in water, hydrochloric acid or sodium bicarbonate either at ambient temperature or 100° C.

A short description of data set [2]: Chemical stability: hydrolysis in 5% NaHCO3 for one hour. Format: physicochemical. The settings on record: 5% NaHCO3, one hour; for %-release in 5% NaHCO3, ambient: ambient temperature (~20° C.); for %-release in 5% NaHCO3, 100° C.: oil bath at 100° C.
A short description of data set [3]: Chemical stability: hydrolysis to hydrocodone in 1 N HCl for 1 hour. The settings on record: for %-release in 1N HCl, ambient: ambient temperature (~20° C.); for %-release in 1N HCl, 100° C.: oil bath at 100° C.
Data set [4] is described as follows: Water solubility / hydrophobicity of conjugates (feasibility of intranasal or intravenous dosing). The settings on record: for hydrophobic character (in words): do not dissolve in a practical amount of water for intravenous dosing at oral equivalent doses; for water solubility (in words): mixed with water, basis for intranasal or intravenous dosing in rats.
The nature of data set [5]: Intranasal PK in rats, plasma hydrocodone and hydromorphone by LC-MS/MS. The settings on record: equivalent to 2 mg/kg hydrocodone freebase.
Data set [6] in a line: Oral PK in rats, plasma hydrocodone, hydromorphone and intact conjugate by LC-MS/MS.
A short description of data set [7]: Oral PK in dogs, plasma intact Bz-HC, hydrocodone and hydromorphone by LC-MS/MS. To be noted: equivalent to 2 mg/kg freebase hydrocodone, FIG. 17.
Setting [8] is: equivalent to 2 mg/kg hydrocodone freebase, FIG. 11.
[9] abbreviates: equivalent to 2 mg/kg hydrocodone freebase, FIG. 12.
Where [10] appears, read: equivalent to 2 mg/kg freebase hydrocodone, FIG. 14.

Regarding `COc1ccc2c3c1O[C@H]1C(OC(=O)c4ccc(O)cc4)=CC[C@H]4[C@@H](C2)N(C)CC[C@]314` [Compound 4-OH-Bz-HC], in data set [1], the “water, ambient (amount of conjugate hydrolyzed)” value (shortened to “water, ambient”) was found to be 0% and the “water, 100° C. (amount of conjugate hydrolyzed)” value was found to be 0%. In data set [2], the “%-release in 5% NaHCO3, ambient” value is given as 1% and the “%-release in 5% NaHCO3, 100° C.” value is recorded as 23%. Further, in data set [3], the “%-release in 1N HCl, ambient” value is reported as 0% and the “%-release in 1N HCl, 100° C.” value worked out at 30%. In addition, the “hydrophobic character (in words)” value in data set [4] is “hydrophobic”.
Consider `COc1ccc2c3c1OC1C(OC(=O)c4ccc5c(c4)OCO5)=CC[C@H]4[C@@H](C2)N(C)CC[C@]314` (stereo partly shown) [Piperonylate-HC], for which, in data set [4], the “hydrophobic character (in words)” value is recorded as “hydrophobic” and the “water solubility (in words)” value was “poorly water soluble”.
With `COc1ccc2c3c1OC1C(OC(=O)CCCCC(=O)O)=CC[C@H]4[C@@H](C2)N(C)CC[C@]314` (stereo partly shown) [Adipate-HC, reference compound], in data set [2], the “%-release in 5% NaHCO3, ambient” value stood at 3% and the “%-release in 5% NaHCO3, 100° C.” value was 100%. For the same compound, in data set [3], the “%-release in 1N HCl, ambient” value stood at 13% and the “%-release in 1N HCl, 100° C.” value is recorded as 100%. Also, in data set [5] (FIG. 7), the “AUC for hydromorphone released from Adipate-HC, higher than for Bz-HC (sentence on hydrocodone plasma concentrations)” value is on record as “approximately 280%” and the “Cmax for hydromorphone released from Adipate-HC, higher than for Bz-HC (sentence on hydrocodone plasma concentrations)” value is reported as approximately 60%. Moreover, in data set [5] (FIG. 8), the “AUC for hydromorphone released from Adipate-HC, higher than for Bz-HC” value was “approximately 750%” and the “Cmax for hydromorphone released from Adipate-HC, higher than for Bz-HC” value is approximately 660%. The “water solubility (in words)” value in data set [4] is given as “water soluble”.
Turning to `COc1ccc2c3c1OC1C(OC(=O)c4cccnc4)=CCC4C(C2)N(C)CCC314` (stereo not shown) [Nicotinate-HC, nicotinate-hydrocodone], in data set [6] (equivalent to 2 mg/kg hydrocodone freebase, FIGS. 9 and 10), the “hydrocodone and hydromorphone plasma concentrations compared with unconjugated Hydrocodone.BT” value is on record as “below the respective concentrations”. Besides, the “AUC values of hydrocodone and hydromorphone compared with Hydrocodone.BT” value in data set [6] (same dose based on hydrocodone freebase) was “within the range of bioequivalence”. Moreover, in data set [4], the “hydrophobic character (in words)” value is recorded as “hydrophobic”.
As to `COc1ccc2c3c1O[C@H]1C(OC(=O)c4ccccc4O)=CC[C@H]4[C@@H](C2)N(C)CC[C@]314.Cl` [Compound 2-OH-Bz-HC, Salicylic Acid Ester of Hydrocodone Hydrochloride Salt], the “hydrophobic character (in words)” value in data set [4] is listed as “hydrophobic”.
Consider `COc1ccc(C(=O)OC2=CC[C@H]3[C@H]4Cc5ccc(OC)c6c5[C@@]3(CCN4C)C2O6)cc1O` (stereo partly shown) [3-OH-4-MeO-Bz-HC], for which, in data set [2], the “%-release in 5% NaHCO3, ambient” value is listed as 0% and the “%-release in 5% NaHCO3, 100° C.” value amounted to 36%. For the same compound, in data set [3], the “%-release in 1N HCl, ambient” value stood at 0% and the “%-release in 1N HCl, 100° C.” value was 35%. For the same compound, in data set [4], the “hydrophobic character (in words)” value was “hydrophobic” and the “water solubility (in words)” value is reported as “poorly water soluble”.
Regarding `COc1ccc2c3c1OC1C(OC(=O)c4ccccc4N)=CCC4C(C2)N(C)CCC314.Cl.Cl` (stereo not shown) [Compound 2-ABz-HC, 2-Aminobenzoic Acid Ester of Hydrocodone Dihydrochloride Salt], in data set [1], the “water, ambient” value worked out at 0% and the “water, 100° C. (amount of conjugate hydrolyzed)” value was determined as 0%. Further, in data set [3], the “%-release in 1N HCl, ambient” value is reported as 0% and the “%-release in 1N HCl, 100° C.” value came out at 16%. In addition, in data set [6] (setting [8]), the “hydrocodone AUC, lower than for Hydrocodone.BT” value is given as “approximately 35%” and the “hydrocodone Cmax, lower than for Hydrocodone.BT” value is approximately 60%. Also, in data set [6] (setting [9]), the “hydromorphone AUC, lower than for Hydrocodone.BT” value is reported as “approximately 25%” and the “hydromorphone Cmax, lower than for Hydrocodone.BT” value was approximately 50%.
With `COc1ccc2c3c1OC1C(OC(=O)COCC(=O)O)=CC[C@H]4[C@@H](C2)N(C)CC[C@]314` (stereo partly shown) [Diglycolate-HC, reference compound], the “water solubility (in words)” value in data set [4] is given as “water soluble”.
Turning to `COc1ccc2c3c1OC1C(OC(=O)c4cccc(O)c4)=CCC4C(C2)N(C)CCC314` (stereo not shown) [Compound 3-OH-Bz-HC], in data set [4], the “hydrophobic character (in words)” value is recorded as “hydrophobic” and the “water solubility (in words)” value is “poorly water soluble”.
`COc1ccc(C(=O)OC2=CC[C@H]3[C@H]4Cc5ccc(OC)c6c5[C@@]3(CCN4C)C2O6)cc1` (stereo partly shown) [Compound 4-MeO-Bz-HC]: in data set [1], the “water, ambient” value came to 0% and the “water, 100° C. (amount of conjugate hydrolyzed)” value turned out to be 0%. Further, in data set [4], the “hydrophobic character (in words)” value was “hydrophobic”.
Consider `COc1ccc2c3c1OC1C(OC(=O)c4ccccc4)=CCC4C(C2)N(C)CCC314` (stereo not shown) [Bz-HC, benzoate-hydrocodone], for which, in data set [5] (FIG. 7), the “hydrocodone plasma concentrations compared with Adipate-HC” value is “significantly lower”. In addition, the “plasma concentration of hydromorphone compared with Adipate-HC” value in data set [5] (FIG. 8) is given as “very low”. In data set [7], the “AUC value for intact Bz-HC as % of the AUC value for hydrocodone” value is listed as “approximately 10%”. In addition, in data set [6] (0.25 to 4.00 mg/kg, particularly for hydromorphone), the “Cmax values of hydrocodone and hydromorphone versus dose” value was “more variable”. For the same compound, the “maximum plasma concentrations of hydromorphone versus dose” value in data set [6] (doses above 2.00 mg/kg of Bz-HC) is “did not significantly change”. Further, the “exposures (AUC) to hydrocodone and hydromorphone versus dose” value in data set [6] (doses of Bz-HC between 0.25 and 4.00 mg/kg, FIGS. 19 and 20) is “fairly linear”. Further, the “oral PK curve for released hydrocodone compared with YYFFI-HC” value in data set [6] (equivalent to 2 mg/kg freebase hydrocodone, FIG. 5) is recorded as “somewhat similar”. In addition, in data set [6] (setting [10]), the “AUC for intact Bz-HC as % of the AUC value for hydrocodone” value is listed as “approximately 10%” and the “AUC for intact Bz-HC as % of the AUC value for hydromorphone” value is given as approximately 3%. In addition, in data set [4], the “hydrophobic character (in words)” value was “hydrophobic” and the “water solubility (in words)” value is listed as “poor water solubility”.
In the case of “Tyr-Tyr-Phe-Phe-Ile-Hydrocodone [YYFFI-HC, reference compound]”, in data set [2], the “%-release in 5% NaHCO3, ambient” value amounted to 0% and the “%-release in 5% NaHCO3, 100° C.” value worked out at 70%.
